In US9149450B2, “Ischemia/reperfusion protection compositions and methods of using” (priority 2007, dated 2015):

Experiments:
[1] = test system: hibernating ground squirrels; details: in vivo, ip
[2] = test system: rats subjected to 60% blood loss; experiment: Rat hemorrhagic shock, 60% blood loss (Example 3); assay type: in vivo
Method: Rats infused with ketone bodies were subjected to 60% blood loss for at least 1 hour, followed by return of the shed blood. Endpoint measures of neuroprotection were quantitative analysis of neuronal survival and apoptosis in cortex, hippocampus and cerebellum as well as neurologic function exam scores. The objective was to determine the effectiveness of the D-form of beta-hydroxybutyrate (D-BHB) in conjunction with melatonin in protecting the brain from ischemia and providing protection from reperfusion injury after blood return.
The goal of the following experiments was to maintain 60% blood loss for at least three hours using a minimal amount of fluid in order to maintain viability. Sixty-percent blood loss was calculated by using the equation: Total blood volume=Animal body weight×0.06. A bolus volume of 1 ml ischemia/reperfusion protection composition per kilogram of animal body weight was given to animals after approximately 40% blood loss. Some animals only received a single 1 ml/kg bolus, while other animals received a slow infusion (100 μl/hr) to imitate an intravenous drip of solution after the bolus was given. […]
Once rats were fully anesthesized and stabilized for a 20 min period, blood loss was begun. […] Temperature was monitored with a rectal probe. […] Animal death was recorded when blood pressure, respiration, and precordial movement ceased (see FIG. 9 for a timeline). […]

| Structure (SMILES) | transport into the heart during hibernation [1] | survival compared with 4 M NaCl ([2]; 60% blood loss, same osmolarity, ambient temperature drift) | survival compared with NaCl, bolus followed by infusion ([2]; bolus then 100 μl/hr infusion, p-value <0.016) |
| --- | --- | --- | --- |
| [13CH3][C@@H](O)[13CH2]C(=O)O [^13C-D-BHB, [2,4-^13C]D-beta-hydroxybutyrate] | efficiently transported into the heart |  |  |
| C[C@@H](O)CC(=O)O [D-BHB, D-beta-hydroxybutyrate] |  | survived longer | lived significantly longer |
